From patent US20250084039A1, “4-SUBSTITUTED AMINOISOQUINOLINE DERIVATIVES” (Purdue Research Foundation, priority 2016, published 2025)
Where two headings read alike, the source gives them in different places.

Key:
[1] = target: AKT1 (Homo sapiens (Human), UniProt P31749); test: Reaction Biology HotSpot kinase assay; assay type: biochemical; conditions: 500 nM compound; read-out: Percentage kinase inhibition AKT1
How it was run: (§1)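 HotSpot 33P transfer format. Enzyme, substrate and 500 nM test compound sit together for 20 min, then labelled and unlabelled ATP totalling 100 μM are added and phosphorylation proceeds for 2 h at room temperature. Products are captured on P81 cellulose paper, and activity is expressed relative to DMSO.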

[2] = target: ALK (Homo sapiens (Human), UniProt Q9UM73); test: Reaction Biology HotSpot kinase assay; assay type: biochemical; conditions: 500 nM compound; read-out: Percentage kinase inhibition ALK
How it was run: (§2)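 Phosphotransfer from [γ-33P]ATP was quantified after filter binding on P81 paper. Conditions: 20 mM HEPES pH 7.5, 10 mM MgCl2, 0.1 mM Na3VO4, 2 mM DTT, 0.02 mg/mL BSA; ATP 100 μM final; 2 h at room temperature. Compound was dosed at 500 nM.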

[3] = target: AXL (Homo sapiens (Human), UniProt P30530); test: Reaction Biology HotSpot kinase assay; assay type: biochemical; conditions: 500 nM compound; read-out: Percentage kinase inhibition AXL
How it was run: (§3)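 Each compound was tested at 500 nM, with 33P incorporation from ATP (100 μM final, including [γ-33P]ATP) measured by P81 paper capture after a 2 h room-temperature reaction.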

[4] = target: BRAF (Homo sapiens (Human), UniProt P15056); test: Reaction Biology HotSpot kinase assay; assay type: biochemical; conditions: 500 nM compound; read-out: Percentage kinase inhibition BRAF
How it was run: as §3

[5] = target: BTK (Homo sapiens (Human), UniProt Q06187); test: Reaction Biology HotSpot kinase assay; assay type: biochemical; conditions: 500 nM compound; read-out: Percentage kinase inhibition BTK
How it was run: as §2

[6] = target: EGFR (Homo sapiens (Human), UniProt P00533); test: Reaction Biology HotSpot kinase assay; assay type: biochemical; conditions: 500 nM compound; read-out: Percentage kinase inhibition EGFR
How it was run: as §2

[7] = target: EPHA5 (Homo sapiens (Human), UniProt P54756); test: Reaction Biology HotSpot kinase assay; assay type: biochemical; conditions: 500 nM compound; read-out: Percentage kinase inhibition EPHA5
How it was run: as §2

[8] = target: ERBB2/HER2 (Homo sapiens (Human), UniProt P04626); test: Reaction Biology HotSpot kinase assay; assay type: biochemical; conditions: 500 nM compound; read-out: Percentage kinase inhibition ERBB2/HER2
How it was run: as §2

[9] = target: FGFR1 (Homo sapiens (Human), UniProt P11362); test: Reaction Biology HotSpot kinase assay; assay type: biochemical; conditions: 500 nM compound; read-out: Percentage kinase inhibition FGFR1
How it was run: as §1

[10] = target: FGR (Homo sapiens (Human), UniProt P09769); test: Reaction Biology HotSpot kinase assay; assay type: biochemical; conditions: 500 nM compound; read-out: Percentage kinase inhibition FGR
How it was run: as §2

[11] = target: FLT1/VEGFR1 (Homo sapiens (Human), UniProt P17948); test: Reaction Biology HotSpot kinase assay; assay type: biochemical; conditions: 500 nM compound; read-out: Percentage kinase inhibition FLT1/VEGFR1
How it was run: as §2

[12] = target: FLT3 (Homo sapiens (Human), UniProt P36888); test: Reaction Biology HotSpot kinase assay; assay type: biochemical; conditions: for inhibition at 0.5 µM: read-out: % inhibition of FLT3 activity
How it was run: as §1

[13] = target: FLT4/VEGFR3 (Homo sapiens (Human), UniProt P35916); test: Reaction Biology HotSpot kinase assay; assay type: biochemical; conditions: 500 nM compound; read-out: Percentage kinase inhibition FLT4/VEGFR3
How it was run: as §2

[14] = target: KDR/VEGFR2 (Homo sapiens (Human), UniProt P35968); test: Reaction Biology HotSpot kinase assay; assay type: biochemical; conditions: 500 nM compound; read-out: Percentage kinase inhibition KDR/VEGFR2
How it was run: as §2

[15] = target: PKCa (Homo sapiens (Human), UniProt P17252); test: Reaction Biology HotSpot kinase assay; assay type: biochemical; conditions: 500 nM compound; read-out: Percentage kinase inhibition PKCa
How it was run: as §2

[16] = target: ROS/ROS1 (Homo sapiens (Human), UniProt P08922); test: Reaction Biology HotSpot kinase assay; assay type: biochemical; conditions: 500 nM compound; read-out: Percentage kinase inhibition ROS/ROS1
How it was run: as §2

[17] = target: TIE2/TEK (Homo sapiens (Human), UniProt Q02763); test: Reaction Biology HotSpot kinase assay; assay type: biochemical; conditions: 500 nM compound; read-out: Percentage kinase inhibition TIE2/TEK
How it was run: as §2

[18] = target: TRKB (Homo sapiens (Human), UniProt Q16620); test: Reaction Biology HotSpot kinase assay; assay type: biochemical; conditions: 500 nM compound; read-out: Percentage kinase inhibition TRKB
How it was run: as §2

[19] = target: YES/YES1 (Homo sapiens (Human), UniProt P07947); test: Reaction Biology HotSpot kinase assay; assay type: biochemical; conditions: 500 nM compound; read-out: Percentage kinase inhibition YES/YES1
How it was run: as §2

[20] = target: c-MER (Homo sapiens (Human), UniProt Q12866); test: Reaction Biology HotSpot kinase assay; assay type: biochemical; conditions: 500 nM compound; read-out: Percentage kinase inhibition c-MER
How it was run: as §2

[21] = target: c-Met (Homo sapiens (Human), UniProt P08581); test: Reaction Biology HotSpot kinase assay; assay type: biochemical; conditions: 500 nM compound; read-out: Percentage kinase inhibition c-Met
How it was run: as §2

[22] = test system: K562; test: IC50 proliferation assay (Alamar Blue, 72 h); assay type: cell-based; conditions: Homo sapiens
[23] = test system: MV4-11; test: IC50 proliferation assay (Alamar Blue, 72 h); assay type: cell-based; conditions: Homo sapiens, MV4-11, 72 h; read-out: IC50 (proliferation inhibition) Cell line - MV4-11
How it was run: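 Cells seeded ~18 h before treatment with semi-serial compound dilutions made in DMSO then growth medium. After 72 h exposure, Alamar Blue added and read following 4 h further at 37 °C; IC50 for proliferation inhibition.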

[24] = test system: MOLM14; test: IC50 determination (proliferation assay, CellTiter-Blue); assay type: cell-based; conditions: for IC50: Homo sapiens, MOLM-14
How it was run: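 MOLM14 and MV4-11 cells seeded about 18 h before compound addition (DMSO-diluted), then 72 h exposure.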

[25] = K562, 72 h, read-out: IC50 (proliferation inhibition) Cell line - K562
[26] = K562, Table 18, read-out: Inhibition of proliferation of K562 cell lines (CML)

FLT3, sequence (P36888 27-993): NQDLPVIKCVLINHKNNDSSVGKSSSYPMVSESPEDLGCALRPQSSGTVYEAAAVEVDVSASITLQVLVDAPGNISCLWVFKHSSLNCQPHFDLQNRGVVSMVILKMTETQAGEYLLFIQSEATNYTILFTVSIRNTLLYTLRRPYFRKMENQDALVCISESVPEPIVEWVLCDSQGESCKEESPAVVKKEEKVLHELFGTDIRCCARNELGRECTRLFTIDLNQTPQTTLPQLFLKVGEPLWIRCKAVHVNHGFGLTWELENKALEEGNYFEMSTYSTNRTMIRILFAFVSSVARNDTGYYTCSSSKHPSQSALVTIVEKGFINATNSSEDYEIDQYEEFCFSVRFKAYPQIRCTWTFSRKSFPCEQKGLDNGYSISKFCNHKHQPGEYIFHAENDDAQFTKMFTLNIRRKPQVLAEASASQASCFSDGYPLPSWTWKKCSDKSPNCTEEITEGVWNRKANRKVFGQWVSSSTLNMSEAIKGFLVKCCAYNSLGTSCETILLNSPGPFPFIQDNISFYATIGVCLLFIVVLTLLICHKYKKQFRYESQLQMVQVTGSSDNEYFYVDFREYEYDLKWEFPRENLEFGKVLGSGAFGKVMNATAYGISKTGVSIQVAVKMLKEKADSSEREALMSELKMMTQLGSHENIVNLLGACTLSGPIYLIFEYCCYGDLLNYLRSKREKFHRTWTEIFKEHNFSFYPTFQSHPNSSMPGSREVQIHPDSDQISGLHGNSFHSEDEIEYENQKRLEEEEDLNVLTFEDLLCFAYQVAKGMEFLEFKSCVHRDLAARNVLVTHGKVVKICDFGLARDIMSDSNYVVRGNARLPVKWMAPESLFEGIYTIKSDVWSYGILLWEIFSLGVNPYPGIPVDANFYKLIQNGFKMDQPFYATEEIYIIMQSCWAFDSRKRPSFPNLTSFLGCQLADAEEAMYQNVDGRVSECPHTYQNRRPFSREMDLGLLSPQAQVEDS
AKT1, sequence (P31749 whole entry): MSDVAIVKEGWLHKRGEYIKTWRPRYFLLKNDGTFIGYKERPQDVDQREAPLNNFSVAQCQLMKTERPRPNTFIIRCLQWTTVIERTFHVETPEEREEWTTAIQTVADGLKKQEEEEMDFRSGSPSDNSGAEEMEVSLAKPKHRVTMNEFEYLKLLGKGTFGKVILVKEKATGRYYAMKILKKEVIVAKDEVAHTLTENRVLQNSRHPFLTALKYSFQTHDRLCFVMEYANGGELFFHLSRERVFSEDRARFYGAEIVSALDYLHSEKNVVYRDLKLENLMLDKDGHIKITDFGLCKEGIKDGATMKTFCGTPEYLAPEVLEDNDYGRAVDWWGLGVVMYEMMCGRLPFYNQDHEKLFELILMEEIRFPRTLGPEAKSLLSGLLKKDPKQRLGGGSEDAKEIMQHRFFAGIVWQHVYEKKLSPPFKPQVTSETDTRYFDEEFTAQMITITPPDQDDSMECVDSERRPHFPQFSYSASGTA
AXL, sequence (P30530 26-894): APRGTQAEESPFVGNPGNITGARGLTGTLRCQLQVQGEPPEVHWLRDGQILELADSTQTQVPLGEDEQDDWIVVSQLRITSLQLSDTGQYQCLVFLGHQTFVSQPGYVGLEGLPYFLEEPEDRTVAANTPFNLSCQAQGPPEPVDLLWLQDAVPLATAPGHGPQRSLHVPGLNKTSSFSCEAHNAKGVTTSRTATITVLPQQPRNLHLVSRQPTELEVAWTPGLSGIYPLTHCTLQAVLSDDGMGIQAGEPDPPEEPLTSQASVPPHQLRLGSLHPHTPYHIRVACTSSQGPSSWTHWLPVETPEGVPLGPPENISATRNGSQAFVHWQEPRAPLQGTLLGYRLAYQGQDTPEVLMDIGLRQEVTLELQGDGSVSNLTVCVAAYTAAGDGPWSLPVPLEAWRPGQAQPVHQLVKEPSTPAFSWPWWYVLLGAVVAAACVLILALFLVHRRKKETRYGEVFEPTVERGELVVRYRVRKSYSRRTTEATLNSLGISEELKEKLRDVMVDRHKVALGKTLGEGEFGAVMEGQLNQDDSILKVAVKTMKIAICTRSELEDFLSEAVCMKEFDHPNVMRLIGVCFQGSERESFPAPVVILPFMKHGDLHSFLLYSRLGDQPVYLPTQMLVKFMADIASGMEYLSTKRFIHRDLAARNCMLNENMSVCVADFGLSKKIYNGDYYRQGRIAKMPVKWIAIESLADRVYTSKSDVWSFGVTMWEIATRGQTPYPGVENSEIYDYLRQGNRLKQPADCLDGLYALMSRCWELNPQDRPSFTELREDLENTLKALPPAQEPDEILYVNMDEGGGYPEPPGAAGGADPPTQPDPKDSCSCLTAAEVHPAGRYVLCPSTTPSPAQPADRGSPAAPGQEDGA
KDR/VEGFR2, sequence (P35968 20-1356): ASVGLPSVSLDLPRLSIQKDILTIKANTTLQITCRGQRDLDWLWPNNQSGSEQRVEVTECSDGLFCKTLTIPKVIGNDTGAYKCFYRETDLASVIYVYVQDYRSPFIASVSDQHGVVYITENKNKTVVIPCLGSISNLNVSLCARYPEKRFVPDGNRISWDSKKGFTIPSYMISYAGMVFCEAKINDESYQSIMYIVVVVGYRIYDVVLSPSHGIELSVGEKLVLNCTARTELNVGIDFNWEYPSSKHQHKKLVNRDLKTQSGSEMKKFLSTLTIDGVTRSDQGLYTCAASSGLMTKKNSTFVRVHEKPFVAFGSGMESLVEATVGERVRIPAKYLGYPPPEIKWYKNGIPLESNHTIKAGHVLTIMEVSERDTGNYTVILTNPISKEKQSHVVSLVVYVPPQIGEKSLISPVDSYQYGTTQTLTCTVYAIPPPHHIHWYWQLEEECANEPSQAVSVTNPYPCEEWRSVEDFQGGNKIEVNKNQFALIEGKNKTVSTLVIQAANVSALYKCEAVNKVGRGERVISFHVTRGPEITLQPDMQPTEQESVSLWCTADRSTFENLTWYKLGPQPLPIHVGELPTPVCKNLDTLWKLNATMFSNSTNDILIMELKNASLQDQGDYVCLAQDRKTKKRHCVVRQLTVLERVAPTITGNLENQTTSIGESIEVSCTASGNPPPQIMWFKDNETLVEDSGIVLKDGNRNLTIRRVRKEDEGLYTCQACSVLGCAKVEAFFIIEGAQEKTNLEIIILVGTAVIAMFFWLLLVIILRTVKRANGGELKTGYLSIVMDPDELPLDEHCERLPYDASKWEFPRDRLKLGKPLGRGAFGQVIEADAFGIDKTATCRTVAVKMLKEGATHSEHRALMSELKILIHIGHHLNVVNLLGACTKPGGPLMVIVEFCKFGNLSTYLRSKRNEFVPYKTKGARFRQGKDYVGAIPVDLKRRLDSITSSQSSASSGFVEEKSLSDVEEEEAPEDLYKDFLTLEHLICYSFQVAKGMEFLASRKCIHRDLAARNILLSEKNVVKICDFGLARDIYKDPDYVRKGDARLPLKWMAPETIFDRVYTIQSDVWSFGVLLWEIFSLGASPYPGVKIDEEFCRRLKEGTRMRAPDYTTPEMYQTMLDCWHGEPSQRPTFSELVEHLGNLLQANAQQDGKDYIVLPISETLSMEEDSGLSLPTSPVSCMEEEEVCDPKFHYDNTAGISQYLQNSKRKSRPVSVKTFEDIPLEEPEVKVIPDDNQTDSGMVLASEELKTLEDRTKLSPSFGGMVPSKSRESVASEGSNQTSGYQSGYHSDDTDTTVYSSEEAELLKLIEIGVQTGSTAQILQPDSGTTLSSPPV
c-MER, sequence (Q12866 21-999): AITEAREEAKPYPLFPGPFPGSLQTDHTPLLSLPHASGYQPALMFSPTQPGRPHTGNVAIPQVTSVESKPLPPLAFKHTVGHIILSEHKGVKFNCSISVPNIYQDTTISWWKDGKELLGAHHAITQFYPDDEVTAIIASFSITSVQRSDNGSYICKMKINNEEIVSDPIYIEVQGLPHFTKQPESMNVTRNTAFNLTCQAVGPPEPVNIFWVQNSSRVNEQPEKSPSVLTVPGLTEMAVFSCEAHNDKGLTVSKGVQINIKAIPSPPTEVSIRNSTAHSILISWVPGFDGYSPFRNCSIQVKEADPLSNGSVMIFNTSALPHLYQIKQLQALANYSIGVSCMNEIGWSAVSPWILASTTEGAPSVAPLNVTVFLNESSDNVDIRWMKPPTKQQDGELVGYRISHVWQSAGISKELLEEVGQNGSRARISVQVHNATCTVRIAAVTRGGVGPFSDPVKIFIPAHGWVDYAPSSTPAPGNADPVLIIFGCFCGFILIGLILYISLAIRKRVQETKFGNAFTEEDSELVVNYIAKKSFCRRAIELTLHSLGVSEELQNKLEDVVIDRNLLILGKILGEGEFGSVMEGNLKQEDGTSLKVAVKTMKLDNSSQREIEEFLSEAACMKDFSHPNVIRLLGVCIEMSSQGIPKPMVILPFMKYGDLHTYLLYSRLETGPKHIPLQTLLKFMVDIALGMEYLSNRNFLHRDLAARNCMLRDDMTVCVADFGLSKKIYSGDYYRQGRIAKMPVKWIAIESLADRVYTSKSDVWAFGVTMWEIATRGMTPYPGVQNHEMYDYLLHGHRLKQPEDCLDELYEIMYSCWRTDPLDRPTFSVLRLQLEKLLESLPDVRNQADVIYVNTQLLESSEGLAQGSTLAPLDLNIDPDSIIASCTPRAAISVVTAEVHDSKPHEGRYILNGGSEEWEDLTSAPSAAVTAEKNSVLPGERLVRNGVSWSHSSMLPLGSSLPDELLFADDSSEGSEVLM

SMILES	inhibition at 0.5 µM [1] [%]	inhibition at 0.5 µM [2] [%]	inhibition at 0.5 µM [3] [%]	inhibition at 0.5 µM [4] [%]	inhibition at 0.5 µM [5] [%]	inhibition at 0.5 µM [6] [%]	inhibition at 0.5 µM [7] [%]	inhibition at 0.5 µM [8] [%]	inhibition at 0.5 µM [9] [%]	inhibition at 0.5 µM [10] [%]	inhibition at 0.5 µM [11] [%]	% inhibition of FLT3 activity [12] [%]	inhibition at 0.5 µM [12] [%]	inhibition at 0.5 µM [13] [%]	inhibition at 0.5 µM [14] [%]	inhibition at 0.5 µM [15] [%]	inhibition at 0.5 µM [16] [%]	inhibition at 0.5 µM [17] [%]	inhibition at 0.5 µM [18] [%]	inhibition at 0.5 µM [19] [%]	also measured
Cc1ccc(C(=O)Nc2ccc(CN3CCN(C)CC3)c(C(F)(F)F)c2)cc1C#Cc1cnc(N)c2ncccc12 [HSN356, 3-((8-amino-1,7-naphthyridin-5-yl)ethynyl)-4-methyl-N-(4-((4-methylpiperazin-1-yl)methyl)-3-(trifluoromethyl)phenyl)benzamide]	0	0	4	100	65	59	96	64	96	99	94	99	98	94	97	0	0	100	75	100	inhibition at 0.5 µM [20]: 0%; inhibition at 0.5 µM [21]: 15%; IC50 [22, 25]: 2 nM; IC50 [22, 26]: 1.8 ± 0.03 nM; IC50 [23]: 0.4 nM; proliferation inhibition in words, MOLM-14 [24]: potent proliferation inhibitors; IC50 [24]: 0.62 ± 0.02 nM
Cc1ccc(C(=O)Nc2ccc(CN3CCN(C)CC3)c(C(F)(F)F)c2)cc1C#Cc1cnc(N)c2ccccc12 [HSN334, 3-((1-aminoisoquinolin-4-yl)ethynyl)-4-methyl-N-(4-((4-methylpiperazin-1-yl)methyl)-3-(trifluoromethyl)phenyl)benzamide]	0	0	5	96	46	61	97	31	96	100	79	100	99	79	94	0	0	99	41	100	inhibition at 0.5 µM [20]: 0%; inhibition at 0.5 µM [21]: 14%; IC50 [22, 25]: 6 nM; IC50 [22, 26]: 6.1 ± 0.1 nM; IC50 [23]: 1 nM; proliferation inhibition in words, MOLM-14 [24]: potent proliferation inhibitors; IC50 [24]: 1.61 ± 0.02 nM
